Results taken from patent US12539292B2, “BRM targeting compounds and associated methods of use” (Arvinas Operations, Inc., priority 2018, dated 2026).
Each block holds one compound with its values, some of them ahead of it.

Biological target: T1, BRM (Homo sapiens, UniProt P51531)
T1 construct: In-Cell Western Screen of BRM Degradation in SW1573 Cells; endogenous in cells; host or cells: SW1573
Assay: In-cell Western screen of BRM degradation in SW1573 cells (Dmax and DC50)
Type: cell-based
Conditions: for Dmax: SW1573, % degraded, when tested at the top concentration of between 0.3 and 10 μM, read-out: BRM Dmax (%); for DC50: target protein degradation, read-out: BRM DC50
Procedure, shortened: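 Near-infrared imaging on a LI-COR Odyssey (800 and 680 nm channels) quantifies BRM remaining in fixed SW1573 cells. Cells are dosed for 18-20 h at 0.1% final DMSO, and degradation is expressed as Dmax and DC50.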

T1 sequence (P51531 whole entry): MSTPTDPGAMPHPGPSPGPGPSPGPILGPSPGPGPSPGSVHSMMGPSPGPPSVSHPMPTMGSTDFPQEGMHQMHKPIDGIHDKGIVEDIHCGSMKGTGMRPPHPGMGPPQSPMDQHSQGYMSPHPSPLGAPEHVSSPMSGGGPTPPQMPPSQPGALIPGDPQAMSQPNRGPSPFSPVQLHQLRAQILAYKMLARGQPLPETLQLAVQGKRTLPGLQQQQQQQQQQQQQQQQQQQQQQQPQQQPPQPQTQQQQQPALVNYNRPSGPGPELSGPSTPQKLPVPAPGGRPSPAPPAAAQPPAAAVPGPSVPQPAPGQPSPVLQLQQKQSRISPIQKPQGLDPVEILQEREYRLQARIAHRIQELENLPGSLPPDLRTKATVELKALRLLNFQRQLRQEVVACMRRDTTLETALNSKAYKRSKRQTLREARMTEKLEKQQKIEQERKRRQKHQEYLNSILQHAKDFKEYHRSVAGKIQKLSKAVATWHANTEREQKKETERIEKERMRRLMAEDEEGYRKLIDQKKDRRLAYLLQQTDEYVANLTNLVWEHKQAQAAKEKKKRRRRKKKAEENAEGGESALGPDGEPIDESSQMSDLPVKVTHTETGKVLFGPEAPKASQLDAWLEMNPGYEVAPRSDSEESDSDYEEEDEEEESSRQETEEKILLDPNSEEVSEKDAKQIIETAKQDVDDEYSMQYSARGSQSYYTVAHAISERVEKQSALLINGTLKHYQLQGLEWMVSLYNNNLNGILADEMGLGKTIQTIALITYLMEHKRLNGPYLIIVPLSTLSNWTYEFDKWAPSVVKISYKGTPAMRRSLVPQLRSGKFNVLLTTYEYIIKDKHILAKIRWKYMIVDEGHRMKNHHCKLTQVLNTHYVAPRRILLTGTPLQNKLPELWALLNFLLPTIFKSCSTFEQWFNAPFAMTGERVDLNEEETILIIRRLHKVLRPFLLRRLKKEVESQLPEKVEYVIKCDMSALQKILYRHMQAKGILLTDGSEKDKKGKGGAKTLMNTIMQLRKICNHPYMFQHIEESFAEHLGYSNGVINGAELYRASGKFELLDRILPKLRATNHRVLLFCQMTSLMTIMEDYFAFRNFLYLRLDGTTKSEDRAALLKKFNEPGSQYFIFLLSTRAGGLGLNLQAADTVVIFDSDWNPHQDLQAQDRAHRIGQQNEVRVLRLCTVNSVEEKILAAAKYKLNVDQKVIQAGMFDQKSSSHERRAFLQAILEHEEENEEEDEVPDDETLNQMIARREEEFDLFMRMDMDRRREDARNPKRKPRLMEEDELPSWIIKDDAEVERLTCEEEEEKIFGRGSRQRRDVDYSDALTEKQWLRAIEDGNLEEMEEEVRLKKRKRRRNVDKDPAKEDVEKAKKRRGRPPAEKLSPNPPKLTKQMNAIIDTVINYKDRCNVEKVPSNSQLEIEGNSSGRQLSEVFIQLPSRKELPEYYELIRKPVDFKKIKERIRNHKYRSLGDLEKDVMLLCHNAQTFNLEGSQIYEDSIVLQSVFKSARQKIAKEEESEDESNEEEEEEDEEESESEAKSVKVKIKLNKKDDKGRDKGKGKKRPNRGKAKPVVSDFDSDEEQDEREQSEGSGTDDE

SMILES: Cc1ncsc1-c1ccc([C@H](C)NC(=O)[C@@H]2C[C@@H](O)CN2C(=O)[C@@H](c2cc(OCCN3CCC(OC4CN(c5cc(N6C7CCC6CN(c6cc(-c8ccccc8O)nnc6N)C7)ccn5)C4)CC3)no2)C(C)C)cc1 [compound 355, (2S,4R)-1-((2R)-2-(3-(2-(4-((1-(4-(3-(3-amino-6-(2-hydroxyphenyl)pyridazin-4-yl)-3,8-diazabicyclo[3.2.1]octan-8-yl)pyridin-2-yl)azetidin-3-yl)oxy)piperidin-1-yl)ethoxy)isoxazol-5-yl)-3-methylbutanoyl)-4-hydroxy-N-((S)-1-(4-(4-methylthiazol-5-yl)phenyl)ethyl)pyrrolidine-2-carboxamide]
Dmax: > 75% | DC50: < 0.0025 µM

DC50: > 0.03 µM
SMILES: Cc1ncsc1-c1ccc([C@H](C)NC(=O)[C@@H]2C[C@@H](O)CN2C(=O)[C@H](c2cc(OCCOCCOc3cc(N4C5CCC4CN(c4cc(-c6ccccc6O)nnc4N)C5)ccn3)no2)C(C)C)cc1 [compound 356, (2S,4R)-1-((2S)-2-(3-(2-(2-((4-(3-(3-amino-6-(2-hydroxyphenyl)pyridazin-4-yl)-3,8-diazabicyclo[3.2.1]octan-8-yl)pyridin-2-yl)oxy)ethoxy)ethoxy)isoxazol-5-yl)-3-methylbutanoyl)-4-hydroxy-N-((S)-1-(4-(4-methylthiazol-5-yl)phenyl)ethyl)pyrrolidine-2-carboxamide]

SMILES: Cc1ncsc1-c1ccc([C@H](C)NC(=O)[C@@H]2C[C@@H](O)CN2C(=O)[C@@H](c2cc(OCCOCCOc3cc(N4C5CCC4CN(c4cc(-c6ccccc6O)nnc4N)C5)ccn3)no2)C(C)C)cc1 [compound 357, (2S,4R)-1-((2R)-2-(3-(2-(2-((4-(3-(3-amino-6-(2-hydroxyphenyl)pyridazin-4-yl)-3,8-diazabicyclo[3.2.1]octan-8-yl)pyridin-2-yl)oxy)ethoxy)ethoxy)isoxazol-5-yl)-3-methylbutanoyl)-4-hydroxy-N-((S)-1-(4-(4-methylthiazol-5-yl)phenyl)ethyl)pyrrolidine-2-carboxamide]
Dmax: > 75% | DC50: < 0.0025 µM

SMILES: Cc1ncsc1-c1ccc([C@H](C)NC(=O)[C@@H]2C[C@@H](O)CN2C(=O)[C@H](c2cc(OCCN3CCC(O[C@H]4C[C@H](OCCN5CCOC6(CCN(c7cc(-c8ccccc8O)nnc7N)CC6)C5)C4)CC3)no2)C(C)C)cc1 [compound 358, (2S,4R)-1-((S)-2-(3-(2-(4-((1r,3S)-3-(2-(9-(3-amino-6-(2-hydroxyphenyl)pyridazin-4-yl)-1-oxa-4,9-diazaspiro[5.5]undecan-4-yl)ethoxy)cyclobutoxy)piperidin-1-yl)ethoxy)isoxazol-5-yl)-3-methylbutanoyl)-4-hydroxy-N-((S)-1-(4-(4-methylthiazol-5-yl)phenyl)ethyl)pyrrolidine-2-carboxamide]
DC50: > 0.03 µM

SMILES: Cc1ncsc1-c1ccc([C@H](C)NC(=O)[C@@H]2C[C@@H](O)CN2C(=O)[C@@H](c2cc(OCCN3CCC(O[C@H]4C[C@H](OCCN5CCOC6(CCN(c7cc(-c8ccccc8O)nnc7N)CC6)C5)C4)CC3)no2)C(C)C)cc1 [compound 359, (2S,4R)-1-((R)-2-(3-(2-(4-((1r,3R)-3-(2-(9-(3-amino-6-(2-hydroxyphenyl)pyridazin-4-yl)-1-oxa-4,9-diazaspiro[5.5]undecan-4-yl)ethoxy)cyclobutoxy)piperidin-1-yl)cthoxy)isoxazol-5-yl)-3-methylbutanoyl)-4-hydroxy-N-((S)-1-(4-(4-methylthiazol-5-yl)phenyl)ethyl)pyrrolidine-2-carboxamide]
Dmax: > 75% | DC50: < 0.0025 µM

SMILES: Cc1ncsc1-c1ccc([C@H](C)NC(=O)[C@@H]2C[C@@H](O)CN2C(=O)[C@@H](c2cc(OCCN3C[C@H]4C[C@@H](O[C@H]5C[C@H](Oc6cc(N7C8CCC7CN(c7cc(-c9ccccc9O)nnc7N)C8)ccn6)C5)C[C@H]4C3)no2)C(C)C)cc1 [compound 360, (2S,4R)-1-((2R)-2-(3-(2-((3aR,5R,6aS)-5-((1r,3R)-3-((4-(3-(3-amino-6-(2-hydroxyphenyl)pyridazin-4-yl)-3,8-diazabicyclo[3.2.1]octan-8-yl)pyridin-2-yl)oxy)cyclobutoxy)hexahydrocyclopenta[c]pyrrol-2(1H)-yl)ethoxy)isoxazol-5-yl)-3-methylbutanoyl)-4-hydroxy-N-((S)-1-(4-(4-methylthiazol-5-yl)phenyl)ethyl)pyrrolidine-2-carboxamide]
Dmax: > 75% | DC50: < 0.0025 µM

SMILES: Cc1ncsc1-c1ccc([C@H](C)NC(=O)C2C[C@@H](O)CN2C(=O)[C@H](c2onc(OCCN3CCC(O[C@H]4C[C@H](Oc5cc(N6C7CCC6CN(c6cc(-c8ccccc8O)nnc6N)C7)ccn5)C4)CC3)c2Cl)C(C)C)cc1 (stereo partly drawn) [compound 361, (2S,4R)-1-((2S)-2-(3-(2-(4-((1r,3S)-3-((4-(3-(3-amino-6-(2-hydroxyphenyl)pyridazin-4-yl)-3,8-diazabicyclo[3.2.1]octan-8-yl)pyridin-2-yl)oxy)cyclobutoxy)piperidin-1-yl)ethoxy)-4-chloroisoxazol-5-yl)-3-methylbutanoyl)-4-hydroxy-N-((S)-1-(4-(4-methylthiazol-5-yl)phenyl)ethyl)pyrrolidine-2-carboxamide]
DC50: > 0.03 µM

SMILES: Cc1ncsc1-c1ccc([C@H](C)NC(=O)C2C[C@@H](O)CN2C(=O)[C@@H](c2onc(OCCN3CCC(O[C@H]4C[C@H](Oc5cc(N6C7CCC6CN(c6cc(-c8ccccc8O)nnc6N)C7)ccn5)C4)CC3)c2Cl)C(C)C)cc1 (stereo partly drawn) [compound 362, (2S,4R)-1-((2R)-2-(3-(2-(4-((1r,3R)-3-((4-(3-(3-amino-6-(2-hydroxyphenyl)pyridazin-4-yl)-3,8-diazabicyclo[3.2.1]octan-8-yl)pyridin-2-yl)oxy)cyclobutoxy)piperidin-1-yl)ethoxy)-4-chloroisoxazol-5-yl)-3-methylbutanoyl)-4-hydroxy-N-((S)-1-(4-(4-methylthiazol-5-yl)phenyl)ethyl)pyrrolidine-2-carboxamide]
Dmax: > 75% | DC50: < 0.0025 µM

SMILES: CC(C)[C@H](C(=O)N1C[C@H](O)C[C@H]1C(=O)N[C@@H](C)c1ccc(-c2nncs2)cc1)c1cc(OCCN2CCC(O[C@H]3C[C@H](Oc4cc(N5C6CCC5CN(c5cc(-c7ccccc7O)nnc5N)C6)ccn4)C3)CC2)no1 [compound 363, (2S,4R)-N-((S)-1-(4-(1,3,4-thiadiazol-2-yl)phenyl)ethyl)-1-((2S)-2-(3-(2-(4-((1r,3S)-3-((4-(3-(3-amino-6-(2-hydroxyphenyl)pyridazin-4-yl)-3,8-diazabicyclo[3.2.1]octan-8-yl)pyridin-2-yl)oxy)cyclobutoxy)piperidin-1-yl)ethoxy)isoxazol-5-yl)-3-methylbutanoyl)-4-hydroxypyrrolidine-2-carboxamide]
DC50: > 0.03 µM

SMILES: CC(C)[C@@H](C(=O)N1C[C@H](O)C[C@H]1C(=O)N[C@@H](C)c1ccc(-c2nncs2)cc1)c1cc(OCCN2CCC(O[C@H]3C[C@H](Oc4cc(N5C6CCC5CN(c5cc(-c7ccccc7O)nnc5N)C6)ccn4)C3)CC2)no1 [compound 364, (2S,4R)-N-((S)-1-(4-(1,3,4-thiadiazol-2-yl)phenyl)ethyl)-1-((2R)-2-(3-(2-(4-((1r,3R)-3-((4-(3-(3-amino-6-(2-hydroxyphenyl)pyridazin-4-yl)-3,8-diazabicyclo[3.2.1]octan-8-yl)pyridin-2-yl)oxy)cyclobutoxy)piperidin-1-yl)ethoxy)isoxazol-5-yl)-3-methylbutanoyl)-4-hydroxypyrrolidine-2-carboxamide]
Dmax: > 75% | DC50: > 0.03 µM

SMILES: Cc1ncn(C)c1-c1ccc([C@H](C)NC(=O)[C@@H]2C[C@@H](O)CN2C(=O)[C@H](c2cc(OCCN3CCC(O[C@H]4C[C@H](Oc5cc(N6C7CCC6CN(c6cc(-c8ccccc8O)nnc6N)C7)ccn5)C4)CC3)no2)C(C)C)cc1 [compound 365, (2S,4R)-1-((2S)-2-(3-(2-(4-((1r,3S)-3-((4-(3-(3-amino-6-(2-hydroxyphenyl)pyridazin-4-yl)-3,8-diazabicyclo[3.2.1]octan-8-yl)pyridin-2-yl)oxy)cyclobutoxy)piperidin-1-yl)ethoxy)isoxazol-5-yl)-3-methylbutanoyl)-N-((S)-1-(4-(1,4-dimethyl-1H-imidazol-5-yl)phenyl)ethyl)-4-hydroxypyrrolidine-2-carboxamide]
DC50: > 0.03 µM

SMILES: Cc1ncn(C)c1-c1ccc([C@H](C)NC(=O)[C@@H]2C[C@@H](O)CN2C(=O)[C@@H](c2cc(OCCN3CCC(O[C@H]4C[C@H](Oc5cc(N6C7CCC6CN(c6cc(-c8ccccc8O)nnc6N)C7)ccn5)C4)CC3)no2)C(C)C)cc1 [compound 366, (2S,4R)-1-((2R)-2-(3-(2-(4-((1r,3R)-3-((4-(3-(3-amino-6-(2-hydroxyphenyl)pyridazin-4-yl)-3,8-diazabicyclo[3.2.1]octan-8-yl)pyridin-2-yl)oxy)cyclobutoxy)piperidin-1-yl)ethoxy)isoxazol-5-yl)-3-methylbutanoyl)-N-((S)-1-(4-(1,4-dimethyl-1H-imidazol-5-yl)phenyl)ethyl)-4-hydroxypyrrolidine-2-carboxamide]
Dmax: > 75% | DC50: 0.0025 to 0.01 µM

SMILES: Cc1ncsc1-c1ccc([C@H](C)NC(=O)[C@@H]2C[C@@H](O)CN2C(=O)[C@H](c2cc(OCCN3CCC(O[C@H]4C[C@H](Oc5cc(N6C7CCC6CN(c6cc(-c8ccccc8O)nnc6N)C7)ccn5)C4)CC3)no2)C(C)C)nc1 [compound 367, (2S,4R)-1-((2S)-2-(3-(2-(4-((1r,3S)-3-((4-(3-(3-amino-6-(2-hydroxyphenyl)pyridazin-4-yl)-3,8-diazabicyclo[3.2.1]octan-8-yl)pyridin-2-yl)oxy)cyclobutoxy)piperidin-1-yl)ethoxy)isoxazol-5-yl)-3-methylbutanoyl)-4-hydroxy-N-((S)-1-(5-(4-methylthiazol-5-yl)pyridin-2-yl)ethyl)pyrrolidine-2-carboxamide]
Dmax: > 75% | DC50: > 0.03 µM
